In patent US10945980B2, “Treatment for myopia” (The University of Newcastle, priority 2016, dated 2021):

Key:
Type in all cases: in vivo, guinea pig (Cavia porcellus)
[1] = test system: normal eye growth in guinea pigs; test: Eye drops on normal growth and emmetropization (no lens wear); conditions: eye drops twice daily 9-16 days of age
Method: Two experimental protocols were employed (see Table 4). In Experiment 1, young guinea pigs wore a −6D lens on one eye from 5-12 days of age. They were randomly divided within each litter into two groups of 10 animals each, and received either a drop of L-Arginine (100 mM, 1.7%) in Saline (pH 7.4) or Saline alone (0.9%, pH 7.4) twice per day in the eye wearing the lens (Table 4). Drops were administered at the beginning of their light cycle and again approximately 6 hrs later in the middle of their day cycle. Lenses were removed during the drop administration which occurred under dim red light or in darkness. A single large drop was bathed on the cornea for 3 min in the lens-wearing eye in hand held animals. A clean lens was then reintroduced onto the eye. In Experiment 2, 14 guinea pigs were given eye drops in the same manner as in Experiment 1, but in both eyes and without any lens-wear, to determine the effect of the eye drops on normal eye growth. Animals received one drop of either 1.7% L-arginine (n=7) or atropine (Minims Atropine Sulphate 1%, Bausch & Lomb, preservative free, n=7) in one eye and saline (0.9%) in the other eye twice per day from 9-16 days of age.
In Experiment 1, at the end of the lens-wearing period, at 12 days of age just before the morning lights came on, both eyes were cyclopleged (1% Cyclopentolate—to paralyse the focussing muscles of the eye to a resting state) and 1.25 hours later, refractive error (RE) was measured. Animals were then anaesthetised with gaseous anaesthetic (1.5% isoflurane in oxygen) and eye length measures were taken in both eyes with high frequency ultrasound as described in Example 1. Biometry measures were also taken in the same manner before the lens wear period at 5 days of age. [No refractive measures were done at 5 days of age as cycloplegia could have interfered with the drug or lens response]. In Experiment 2, refractive error and eye length using ultrasound were measured in the same manner at 17 days of age, 24 hours after the previous drop was administered.
After cycloplegia was induced, refractive error was measured in each eye using an Autorefractor (Nidek AR-20, Japan). The spherical equivalent was calculated as the average of the sphere plus half the cylinder as is normal in clinical practice. All reported refractive errors are the spherical equivalent. Next, ocular length was measured using high frequency ultrasound (20 MHz) as previously described (McFadden et al, 2004). At least 20 traces were recorded for each eye and distances were averaged for at least 10 of these recordings. Peaks from the recordings were selected for the back of the cornea, the crystalline lens, and the vitreous chamber, and the layers at the back of the eye: the retina, choroid, and sclera. Ocular length was defined as the summed measurement from the front of the cornea to the back of the sclera.
Differences between the two eyes were analysed by a 2-tailed T-tests. The mean of calculated differences between the two eyes is referred to as relative myopia or relative ocular length and the difference in the change in ocular length in the treated compared to the untreated eye as relative growth.

[2] = test system: form deprivation myopia in guinea pigs; test: Intravitreal L-arginine in form deprivation (FD) myopia, 3 days diffuser wear
Method: Fifty-seven pigmented guinea pigs (Cavia porcellus) were sourced from the University of Newcastle and housed as described in Example 1. Animals were provided with food and water ad libitum and the room temperature was maintained at 22° C. The University of Newcastle under Australian legislative requirements approved all procedures.
Animals wore classical form diffusers made of translucent moulded Perspex (0.8 mm thickness, 24% transmission) on their right eyes. Diffusers were mounted onto plastic washers backed with Velcro® and attached to mating Velcro® arcs which were affixed above and below the eye.
Animals were assigned to one of seven treatment groups (Table 1). From seven days of age, five of these groups were form deprived in the right eye for 3 days with a diffuser (two groups wore no diffusers and served as controls for form deprived animals). Six groups of animals were intravitreally injected with either L-arginine or physiological saline once per day, just before lights came on at 10 am. One group wore diffusers, but received no injection as a control. At ten days of age, cycloplegia was induced in all animals and refractive error and ocular components were measured. Two retinas, one a saline control and another that had been injected with the highest dose of L-arginine, were analysed by histochemistry for morphological markers of L-arginine induced toxicity.
To establish the size of the guinea pig vitreous, and thus the molarity of the substrate within the eye, ten vitreous chambers were extracted from ten eyes. The volume of the vitreous was 125 μl. Based on this, three drug doses of L-arginine were employed: low (0.4 mM), medium (2.2 mM) and high (non-toxic: 9.3 mM) (See Table 1). A 30 gauge Hamilton syringe was used to slowly inject into the vitreous through the temporal sclera of right eyes, approximately 2 mm posterior to the limbus. All injections were 10 μl of either physiological saline (0.9%) or L-arginine dissolved in saline (pH 7.4 for all injections).
Cycloplegia was induced as described in Example 1, and refractive error subsequently measured as described in Example 1.
Ocular length and axial components were also determined as described in Example 1.
The data presented are means±standard errors of the mean. All figures and statistics are based on the difference between the lens-wearing eye and the fellow non lens-wearing eye and are referred to as relative refractive error and relative ocular distances. Statistical comparisons between lens wearing groups were based on one way ANOVAs followed by Holm-Sidak post hoc tests to account for family-wise error. Correlations were based on Pearson's regression analysis. Statistical analysis used Prism®, Graph Pad Software, Inc. V 6.

[3] = test system: lens-induced myopia in guinea pigs; test: Intravitreal L-arginine in lens-induced (−6D) myopia, 3 days; conditions: 0.2 mM L-arginine daily intravitreal at 7, 8, 9 days of age, −6D lens 3 days; not significant p=0.169

N=C(N)NCCC[C@H](N)C(=O)O [L-arginine]
ocular length on average ([1]; measured at 17 days, p=0.22 between groups): 8.124 mm | mean refractive error, both eyes averaged ([1]; measured at 17 days, p=0.32 between groups): +4.43 | effect on refractive error (drug eye vs saline eye) ([1]; no lens, 1.7% LA (p=0.69) or 1% Atropine (p=0.40)): did not affect the refractive error of the eye | difference between the two eyes in ocular length (drug eye vs saline control eye) ([1]; LA p=0.39, ATR p=0.42): −33 μm | relative refractive error compared with animals that had no form deprivation ([2]; FD 2.2 mM and FD 9.3 mM groups, daily intravitreal injection, 3 days FD): not significantly different from animals that had no form deprivation | ocular length, shortening relative to FD NIL ([2]; FD 9.3 mM (high dose, intravitreal) vs form deprivation only, p<0.001): −484 μm | vitreous chamber depth, difference FD 0 mM vs FD 9.3 mM ([2]; FD + vehicle vs FD + 9.3 mM L-arginine, did not reach significance, p=0.12): 215 μm | choroid thickness, FD 0 mM thinner than FD 9.3 mM ([2]; FD + vehicle vs FD + 9.3 mM L-arginine, not significant, p=0.14): 31 μm | ocular length, FD 0 mM greater than FD 9.3 mM ([2]; FD + vehicle vs FD + high dose L-arginine 9.3 mM intravitreal, p<0.001): 403 μm | vitreous chamber depth, FD NIL longer than FD 9.3 mM ([2]; form deprivation only vs FD + 9.3 mM L-arginine intravitreal, p<0.001): 484 μm | choroid thickness, difference FD NIL vs FD 9.3 mM ([2]; form deprivation only vs FD + 9.3 mM L-arginine intravitreal, p=0.03): −39 μm | interocular difference in refractive error (lens-wearing eye more hyperopic than fellow eye) [3]: 2.00 D
